Activity calls are given as the source filed them.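 The calls were made as follows: active = IC50 of 10 µM or lower; inactive = IC50 above 10 µM.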 A value given as a limit tells only on which side of the number the result lay.

The test system of this assay is T. brucei BSF 427 growth, AlamarBlue, 48 h. The experiment in a line: trypanosome proliferation inhibition – absorbance, assay provider, round 3, counter-screen for T. brucei MetRS inhibitor project, dose response (AID 1053204). In general terms: Counterscreens check selectivity or assay interference.
One may read the IC50 as the concentration that inhibits the measured activity by half. Regarding `CCN(CC)C(=O)C(=O)c1cn(CCNc2cc(Oc3ccccc3)cc(C(F)(F)F)c2)c2ccccc12`, the IC50 was 4080 nM.

On to `CCN(CC)C(=O)C(=O)c1cn(CC(=O)Nc2cc(Oc3ccc(F)cc3)cc(C(F)(F)F)c2)c2ccccc12`, for which the IC50 was 1420 nM. To `CCN(CC)C(=O)C(=O)c1cn(CCNc2cccc(C(F)(F)F)c2)c2ccccc12` belongs 5500 nM.

In the case of `Nc1c(Cl)ncnc1Nc1ccc(C(=O)O)cc1`, the IC50 is > 10000 nM (inactive). `CCN(CC)C(=O)C(=O)c1cn(CC(=O)Nc2cc(Oc3ccccc3OC)cc(C(F)(F)F)c2)c2ccccc12`: the IC50 was 952 nM. To `CCN(CC)C(=O)Cc1cn(CC(=O)Nc2cccc(C(F)(F)F)c2)c2ccccc12` belongs > 10000 nM (inactive). For `O=C(Cn1cc(C(=O)C(=O)NCc2ccccc2)c2ccccc21)Nc1cc(Oc2ccccc2)cc(C(F)(F)F)c1`, the IC50 was 916 nM.

In the case of `CCN(CC)C(=O)C(=O)c1cn(CC(=O)Nc2cc(Oc3ccccc3F)cc(C(F)(F)F)c2)c2ccccc12`, the IC50 was 1630 nM. The result for `CCN(CC)C(=O)C(=O)c1cn(CC(=O)Nc2cc(Oc3ccc(OC)cc3)cc(C(F)(F)F)c2)c2ccccc12` reads 830 nM.

Turning to `O=C(Cc1ccc(Nc2nc3ccc(Br)cc3[nH]2)cc1)NCCc1cccs1`, the IC50 was 8910 nM.

The values above are taken from PubChem BioAssay AID1053204 (The Scripps Research Institute Molecular Screening Center, 2014).
